We go through eleven compounds from ChEMBL document CHEMBL1130950, “Synthesis and structure-activity relationship of substituted 1,2,3,4-tetrahydroisoquinolines as N-type calcium channel blockers” (Bioorg Med Chem Lett, 1998).

For the experiment, the target named is Voltage-dependent N-type calcium channel subunit alpha-1B (Homo sapiens, UniProt Q00975). Kind of experiment: Inhibition of N-type calcium channel in IMR-32 human neuroblastoma cells. It is filed as cell-based.
Sequence of Voltage-dependent N-type calcium channel subunit alpha-1B (Q00975 whole entry): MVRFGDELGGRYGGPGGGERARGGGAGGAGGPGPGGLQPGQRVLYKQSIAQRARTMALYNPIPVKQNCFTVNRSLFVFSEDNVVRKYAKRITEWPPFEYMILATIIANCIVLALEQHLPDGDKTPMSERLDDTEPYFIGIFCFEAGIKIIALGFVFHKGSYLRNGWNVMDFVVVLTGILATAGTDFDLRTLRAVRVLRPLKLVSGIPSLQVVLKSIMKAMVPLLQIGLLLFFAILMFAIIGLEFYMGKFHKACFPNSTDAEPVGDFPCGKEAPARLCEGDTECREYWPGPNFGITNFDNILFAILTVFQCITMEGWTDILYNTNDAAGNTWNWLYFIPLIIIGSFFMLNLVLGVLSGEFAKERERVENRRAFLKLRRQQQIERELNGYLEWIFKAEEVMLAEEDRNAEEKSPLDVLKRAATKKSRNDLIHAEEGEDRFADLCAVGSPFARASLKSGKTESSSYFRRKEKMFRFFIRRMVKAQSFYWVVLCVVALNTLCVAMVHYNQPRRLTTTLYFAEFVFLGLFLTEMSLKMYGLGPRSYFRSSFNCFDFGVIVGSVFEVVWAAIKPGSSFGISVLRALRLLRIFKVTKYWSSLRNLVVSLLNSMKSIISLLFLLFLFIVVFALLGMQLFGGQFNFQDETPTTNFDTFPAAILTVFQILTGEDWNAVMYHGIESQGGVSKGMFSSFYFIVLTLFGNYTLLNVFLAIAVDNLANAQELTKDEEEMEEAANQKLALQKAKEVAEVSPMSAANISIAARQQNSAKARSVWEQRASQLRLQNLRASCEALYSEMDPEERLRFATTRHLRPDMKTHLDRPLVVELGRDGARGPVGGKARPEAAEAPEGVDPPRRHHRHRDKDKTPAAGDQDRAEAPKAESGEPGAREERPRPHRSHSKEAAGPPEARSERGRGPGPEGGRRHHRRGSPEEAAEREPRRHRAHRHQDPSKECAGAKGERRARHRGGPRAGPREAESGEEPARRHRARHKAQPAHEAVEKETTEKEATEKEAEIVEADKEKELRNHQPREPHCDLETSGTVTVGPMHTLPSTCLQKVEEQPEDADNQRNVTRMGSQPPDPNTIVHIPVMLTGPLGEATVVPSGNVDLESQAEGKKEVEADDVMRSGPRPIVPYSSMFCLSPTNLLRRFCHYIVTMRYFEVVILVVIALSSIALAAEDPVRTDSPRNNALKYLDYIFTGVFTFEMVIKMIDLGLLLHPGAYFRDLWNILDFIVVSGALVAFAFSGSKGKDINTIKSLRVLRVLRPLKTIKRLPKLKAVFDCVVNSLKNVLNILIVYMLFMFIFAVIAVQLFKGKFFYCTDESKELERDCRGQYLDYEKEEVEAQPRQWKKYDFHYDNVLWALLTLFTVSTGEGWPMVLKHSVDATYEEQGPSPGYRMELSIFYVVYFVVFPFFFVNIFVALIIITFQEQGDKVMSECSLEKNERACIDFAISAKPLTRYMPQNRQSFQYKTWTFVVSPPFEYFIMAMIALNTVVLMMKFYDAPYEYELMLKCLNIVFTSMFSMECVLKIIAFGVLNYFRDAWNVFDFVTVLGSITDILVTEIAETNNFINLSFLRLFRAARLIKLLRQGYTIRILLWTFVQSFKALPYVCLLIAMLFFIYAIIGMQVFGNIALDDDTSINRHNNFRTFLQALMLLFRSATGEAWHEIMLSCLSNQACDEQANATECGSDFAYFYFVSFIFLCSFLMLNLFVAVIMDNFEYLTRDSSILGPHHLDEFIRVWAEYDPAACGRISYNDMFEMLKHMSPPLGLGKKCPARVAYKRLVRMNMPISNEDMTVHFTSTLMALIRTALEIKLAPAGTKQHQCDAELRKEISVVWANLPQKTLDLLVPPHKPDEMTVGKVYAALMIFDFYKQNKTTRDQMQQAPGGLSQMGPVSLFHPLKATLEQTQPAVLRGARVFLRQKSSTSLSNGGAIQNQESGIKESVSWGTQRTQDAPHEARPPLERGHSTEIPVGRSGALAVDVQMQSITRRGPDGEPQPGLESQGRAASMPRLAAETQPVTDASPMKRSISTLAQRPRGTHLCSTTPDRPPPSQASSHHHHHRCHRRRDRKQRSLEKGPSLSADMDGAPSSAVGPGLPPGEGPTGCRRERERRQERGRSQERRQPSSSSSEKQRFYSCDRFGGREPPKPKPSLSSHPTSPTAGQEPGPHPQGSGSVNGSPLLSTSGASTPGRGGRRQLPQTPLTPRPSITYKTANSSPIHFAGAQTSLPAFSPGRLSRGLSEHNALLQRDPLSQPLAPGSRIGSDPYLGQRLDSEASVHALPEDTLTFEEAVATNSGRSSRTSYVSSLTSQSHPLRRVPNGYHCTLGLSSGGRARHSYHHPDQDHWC
The IC50 is the concentration at which inhibition is half-maximal. For the compound `CN1CCc2c(ccc(CN3CCCCCC3)c2O)C1`, the half-maximal inhibitory concentration (IC50) is over 100 µM.

With `Oc1c(CN2CCCCCC2)ccc2c1CCN(CCCC(c1ccccc1)c1ccccc1)C2`, the IC50 stood at 0.46 µM.

In the case of `Oc1c(CN2CCCCCC2)ccc2c1CCN(CCCCC=C(c1ccccc1)c1ccccc1)C2`, the IC50 is 2.5 µM.

`Oc1c(CN2CCCCC2)cc(Cc2cc(CN3CCCCC3)c(O)c3ncccc23)c2ccncc12`: the IC50 amounted to 4.4 µM.

Regarding `Oc1c(CN2CCCCCC2)ccc2cnccc12`, the IC50 stood at 35 µM.

Consider `Oc1c(CN2CCCCCC2)ccc2c1CCN(CCCCC(c1ccccc1)c1ccccc1)C2`, for which the half-inhibitory concentration (IC50) was 4.8 µM.

As for `Oc1c(CN2CCCCCC2)ccc2c1CCN(CCC(c1ccccc1)c1ccccc1)C2`, the IC50 worked out at 7.4 µM.

On to `Oc1c(CN2CCCCCC2)ccc2c1CCN(CCCCCC(c1ccccc1)c1ccccc1)C2`, for which the IC50 was 1.1 µM.

For `COc1ccc(CCCCN2CCc3c(ccc(CN4CCCCCC4)c3O)C2)cc1`, the IC50 amounted to 10 µM.

As for `Oc1c(CN2CCCCCC2)ccc2c1CCN(CCCCc1ccc(F)cc1)C2`, the IC50 was 5.1 µM.

As for `Oc1c(CN2CCCCCC2)ccc2c1CCN(CCCCc1ccccc1)C2`, the IC50 was found to be 15 µM.
